Measured values: US20150361087A1, “ANTIVIRAL COMPOUNDS” (Gilead Sciences, Inc., priority 2014, published 2015)
Where two headings read alike, the source gives them in different places.

What was measured:
[1] = system: HCV 1b RLuc replicon cells (genotype 1b Conl replicon); assay: Renilla luciferase HCV replicon reporter assay, genotype 1b; assay type: cell-based; conditions: stable replicon cells, 72 hours, RLuc readout
Protocol: (§1) Evaluation of cell-based anti-HCV activity: Antiviral potency (EC50) was determined using a Renilla luciferase (RLuc)-based HCV replicon reporter assay. To perform the assay for genotype 1 and 2a JFH-1, stable HCV 1a RLuc replicon cells (harboring a dicistronic genotype 1a H77 replicon that encodes a RLuc reporter), stable HCV 1b RLuc replicon cells (harboring a dicistronic genotype 1b Conl replicon that encodes a RLuc reporter), or stable HCV 2a JFH-1 Rluc replicon cells (harboring a dicistronic genotype 2a JFH-1 replicon that encodes a RLuc reporter; with L31 present in NS5A) were dispensed into 384-well plates for EC50 assays. To perform the assay for genotype 2a (with M31 present in NS5A) or 2b, NS5A chimeric genotype 2a JFH-1 replicons that encodes a RLuc-Neo reporter and either genotype 2a J6 strain NS5A gene or genotype 2b MD2b-1 strain NS5A gene (both with M31 present) respectively, were either transiently transfected (t) into Huh-Lunet cells or were established as stably replicating replicon cells (s) is provided. Either cells were dispensed into 384-well plates for EC50 assays. To perform the assay for genotype 3 and 4, NS5A chimeric genotype 1b Conl replicons that encodes a Pi-RLuc reporter and either genotype 3a S52 strain NS5A gene or genotype 4a ED43 strain NS5A gene respectively, were transiently transfected (t) into Huh-Lunet cells, which were subsequently dispensed into 384-well plates. Compounds were dissolved in DMSO at a concentration of 10 mM and diluted in DMSO either manually or using an automated pipeting instrument. Serially 3-fold diluted compounds were either manually mixed with cell culture media and added to the seeded cells or directly added to the cells using an automated instrument. DMSO was used as a negative (solvent; no inhibition) control, and the protease inhibitor ITMN-191 was included at a concentration >100×EC50 as a positive control. 72 hours later, cells were lysed and Renilla luciferase activity quantified as recommended by the manufacturer (Promega-Madison, Wis.). Non-linear regression was performed to calculate EC50 values.

[2] = system: HCV 1a RLuc replicon cells (genotype 1a H77 replicon); assay: Renilla luciferase HCV replicon reporter assay, genotype 1a; assay type: cell-based; conditions: stable replicon cells, 72 hours, RLuc readout
Protocol: as §1

[3] = system: HCV 2a JFH-1 Rluc replicon cells (L31 present in NS5A); assay: Renilla luciferase HCV replicon reporter assay, genotype 2a JFH-1; assay type: cell-based; conditions: stable replicon cells, 72 hours
Protocol: as §1

[4] = target: NS5A chimeric genotype 2a JFH-1 replicon with genotype 2a J6 strain NS5A gene (M31); assay: Renilla luciferase HCV replicon reporter assay, genotype 2a J6; assay type: cell-based; conditions: transiently transfected (t) into Huh-Lunet cells, 72 hours
Protocol: (§2) Evaluation of cell-based anti-HCV activity: Antiviral potency (EC50) was determined using a Renilla luciferase (RLuc)-based HCV replicon reporter assay. To perform the assay for genotype 1 and 2a JFH-1, stable HCV 1a RLuc replicon cells (harboring a dicistronic genotype 1a H77 replicon that encodes a RLuc reporter), stable HCV 1b RLuc replicon cells (harboring a dicistronic genotype 1b Conl replicon that encodes a RLuc reporter), or stable HCV 2a JFH-1 Rluc replicon cells (harboring a dicistronic genotype 2a JFH-1 replicon that encodes a RLuc reporter; with L31 present in NS5A) were dispensed into 384-well plates for EC50 assays. To perform the assay for genotype 2a (with M31 present in NS5A) or 2b, NS5A chimeric genotype 2a JFH-1 replicons that encodes a RLuc-Neo reporter and either genotype 2a J6 strain NS5A gene or genotype 2b MD2b-1 strain NS5A gene (both with M31 present) respectively, were either transiently transfected (t) into Huh-Lunet cells or were established as stably replicating replicon cells (s) is provided. Either cells were dispensed into 384-well plates for EC50 assays. […] 72 hours later, cells were lysed and Renilla luciferase activity quantified as recommended by the manufacturer (Promega-Madison, Wis.). […]

[5] = target: NS5A chimeric genotype 2a JFH-1 replicon with genotype 2b MD2b-1 strain NS5A gene (M31); assay: Renilla luciferase HCV replicon reporter assay, genotype 2b; assay type: cell-based
Protocol: as §1

[6] = target: NS5A chimeric genotype 1b Conl replicon with genotype 3a S52 strain NS5A gene; assay: Renilla luciferase HCV replicon reporter assay, genotype 3a; assay type: cell-based
Protocol: as §1

[7] = system: L31V/Y93H in genotype 1b NS5A (1b Pi-Rluc replicon); assay: Replicon assay against resistance mutant 1b L31V/Y93H; assay type: cell-based, HCV; conditions: transiently transfected Huh-7-derived cured-51 cells
Protocol: (§3) Evaluation of cell-based anti-HCV activity: Antiviral potency (EC50) was determined using a Renilla luciferase (RLuc)-based HCV replicon reporter assay. To perform the assay for genotype 1 and 2a JFH-1, stable HCV 1a RLuc replicon cells (harboring a dicistronic genotype 1a H77 replicon that encodes a RLuc reporter), stable HCV 1b RLuc replicon cells (harboring a dicistronic genotype 1b Conl replicon that encodes a RLuc reporter), or stable HCV 2a JFH-1 Rluc replicon cells (harboring a dicistronic genotype 2a JFH-1 replicon that encodes a RLuc reporter; with L31 present in NS5A) were dispensed into 384-well plates for EC50 assays. […] 72 hours later, cells were lysed and Renilla luciferase activity quantified as recommended by the manufacturer (Promega-Madison, Wis.). […]
(§4) To determine the antiviral potency (EC50) against resistance mutants, resistance mutations, including Q30R, Q30E, Y93H, and Y93N in genotype 1a NS5A, and L31V/Y93H in genotype 1b NS5A were introduced individually into either 1a Pi-Rluc or 1b Pi-Rluc replicons by site directed mutagenesis. Replicon RNA of each resistant mutant was transiently transfected into Huh-7-derived cured-51 cells and antiviral potency was determined on these transfected cells as described above.

[8] = system: Q30E in genotype 1a NS5A (1a Pi-Rluc replicon); assay: Replicon assay against resistance mutant 1a Q30E; assay type: cell-based, HCV; conditions: transiently transfected Huh-7-derived cured-51 cells
Protocol: as §3, §4

[9] = system: Y93H in genotype 1a NS5A (1a Pi-Rluc replicon); assay: Replicon assay against resistance mutant 1a Y93H; assay type: cell-based, HCV
Protocol: (§5) Evaluation of cell-based anti-HCV activity: Antiviral potency (EC50) was determined using a Renilla luciferase (RLuc)-based HCV replicon reporter assay. To perform the assay for genotype 1 and 2a JFH-1, stable HCV 1a RLuc replicon cells (harboring a dicistronic genotype 1a H77 replicon that encodes a RLuc reporter), stable HCV 1b RLuc replicon cells (harboring a dicistronic genotype 1b Conl replicon that encodes a RLuc reporter), or stable HCV 2a JFH-1 Rluc replicon cells (harboring a dicistronic genotype 2a JFH-1 replicon that encodes a RLuc reporter; with L31 present in NS5A) were dispensed into 384-well plates for EC50 assays. To perform the assay for genotype 2a (with M31 present in NS5A) or 2b, NS5A chimeric genotype 2a JFH-1 replicons that encodes a RLuc-Neo reporter and either genotype 2a J6 strain NS5A gene or genotype 2b MD2b-1 strain NS5A gene (both with M31 present) respectively, were either transiently transfected (t) into Huh-Lunet cells or were established as stably replicating replicon cells (s) is provided. Either cells were dispensed into 384-well plates for EC50 assays. To perform the assay for genotype 3 and 4, NS5A chimeric genotype 1b Conl replicons that encodes a Pi-RLuc reporter and either genotype 3a S52 strain NS5A gene or genotype 4a ED43 strain NS5A gene respectively, were transiently transfected (t) into Huh-Lunet cells, which were subsequently dispensed into 384-well plates. […] 72 hours later, cells were lysed and Renilla luciferase activity quantified as recommended by the manufacturer (Promega-Madison, Wis.). […]
as §4

[10] = system: Y93N in genotype 1a NS5A (1a Pi-Rluc replicon); assay: Replicon assay against resistance mutant 1a Y93N; assay type: cell-based, HCV
Protocol: as §5, §4

[11] = system: 3a Y93H; assay: Replicon assay against resistance mutant 3a Y93H; assay type: cell-based, HCV
[12] = design: species or system Sprague-Dawley (SD) rats; conditions: in vivo
Protocol: IV and PO Single Dose Pharmacokinetic Studies in SD Rats: The pharmacokinetics of selected compounds was characterized in male Sprague-Dawley (SD) rats (250-300 g). In this study, two groups of naïve purebred SD rats (N=3 per group, fasted over night) received the selected compound either as an intravenous (IV) infusion (1 mg/kg over 30 minutes) via the jugular vein or by oral gavage (2 mg/kg). The intravenous (IV) dosing vehicle was 5% ethanol, 35% polyethylene glycol 400 (PEG 400) and 60% water pH 2.0. The oral dosing vehicle was 5% ethanol, 55% PEG 400 and 40% citrate buffer pH 2.2.
Serial blood samples (approximately 0.3 mL each) were collected from jugular vein or other suitable vein at specified time points. […]
A bioanalytical method utilizing high performance liquid chromatography coupled to tandem mass spectrometry (LC/MS/MS) was developed for analysis of the selected compound in rat plasma. Detection was performed using selected reaction monitoring (SRM); Ions representing the precursor (M+H) ^+ species was selected in quadrupole 1 (Q1) and collided with argon gas in the collision cell (Q2) to generate specific product ion, which was subsequently monitored by quadrupole 3 (Q3). Standard curve and quality control samples were prepared in male rat plasma and processed in the same way as the test samples to generate quantitative data. […]

[13] = system: NS5A chimeric genotype 1b Conl replicon with genotype 4a ED43 strain NS5A gene; assay: Renilla luciferase HCV replicon reporter assay, genotype 4a; assay type: cell-based; conditions: Hepatitis C virus, 72 h, read-out: 4a (s) (nM)
Protocol: as §2

[14] = Hepatitis C virus, 72 h, read-out: 2b (s) (nM)
[15] = Hepatitis C virus, 72 h, read-out: 3a (nM)
[16] = Hepatitis C virus, read-out: 1a Y93H (nM)
[17] = Hepatitis C virus, read-out: 1a Y93N (nM)
[18] = Hepatitis C virus, read-out: 3a Y93H (nM)

| Structure (SMILES) | EC50 ([1]; Hepatitis C virus) | EC50 ([2]; Hepatitis C virus) | EC50 ([3]; Hepatitis C virus) | EC50 [5, 14] | EC50 [6, 15] | EC50 [13] | EC50 [9, 16] | EC50 [10, 17] | EC50 [11, 18] | other results |
| --- | --- | --- | --- | --- | --- | --- | --- | --- | --- | --- |
| COC(=O)N[C@H](C(=O)N1[C@@H](C)CC[C@H]1c1ncc(-c2cc3c4c(c2)OCc2cc(-c5cnc([C@@H]6CC[C@H](C)N6C(=O)[C@@H](NC(=O)OC)C6C[C@@H](C)O[C@H](C)C6)[nH]5)cc(c2-4)OC3)[nH]1)C1C[C@@H](C)O[C@H](C)C1 (stereo partly drawn) [Compound 14, dimethyl (R,R,1S,1′S)-2,2′-((2S,2′S,5S,5′S)-5,5′-(5,5′-(5,10-dihydrochromeno[5,4,3-cde]chromene-2,7-diyl)bis(1H-imidazole-5,2-diyl))bis(2-methylpyrrolidine-5,1-diyl))bis(1-((2R,6R)-2,6-dimethyltetrahydro-2H-pyran-4-yl)-2-oxoethane-2,1-diyl)dicarbamate] | – | – | – | – | – | – | – | – | – | EC50 [1]: 0.054 nM; EC50 [2]: 0.049 nM; EC50 [3]: 0.011 nM; EC50 [4]: 0.014 nM; EC50 ([5]; transiently transfected (t) into Huh-Lunet cells, 72 hours, read-out: 2b (t)): 0.038 nM; EC50 ([6]; transiently transfected into Huh-Lunet cells, 72 hours, read-out: 3a): 0.04 nM; EC50 [7]: 0.075 nM; EC50 [8]: 0.11 nM; EC50 ([9]; transiently transfected Huh-7-derived cured-51 cells, read-out: 1a Y93H): 0.063 nM; EC50 ([10]; transiently transfected Huh-7-derived cured-51 cells, read-out: 1a Y93N): 0.229 nM; EC50 ([11]; resistance mutant replicon, read-out: 3a Y93H): 0.157 nM; Rat % F [12]: 15% |
| COC(=O)N[C@H](C(=O)N1[C@@H](C)CC[C@H]1c1ncc(-c2cc3c4c(c2)OCc2cc(-c5cnc([C@@H]6CC[C@H](C)N6C(=O)[C@@H](NC(=O)OC)[C@H]6C[C@@H](C)O[C@@H](C)C6)[nH]5)cc(c2-4)OC3)[nH]1)C1C[C@@H](C)O[C@@H](C)C1 (stereo partly drawn) [Compound 16, dimethyl (r,S,R,1S,1′S)-2,2′-((2S,2′S,5S,5′S)-5,5′-(5,5′-(5,10-dihydrochromeno[5,4,3-cde]chromene-2,7-diyl)bis(1H-imidazole-5,2-diyl))bis(2-methylpyrrolidine-5,1-diyl))bis(1-((2R,4r,6S)-2,6-dimethyltetrahydro-2H-pyran-4-yl)-2-oxoethane-2,1-diyl)dicarbamate] | 0.037 nM | 0.043 nM | 0.013 nM | 0.054 nM | 0.051 nM | 0.025 nM | 0.356 nM | 0.685 nM | 0.145 nM | – |
| COC(=O)N[C@H](C(=O)N1CCC[C@H]1c1ncc(-c2cc3c4c(c2)OCc2cc(-c5cnc([C@@H]6CCCN6C(=O)[C@@H](NC(=O)OC)C6C[C@@H](C)O[C@H](C)C6)[nH]5)cc(c2-4)OC3)[nH]1)C1C[C@@H](C)O[C@H](C)C1 (stereo partly drawn) [Compound 15, dimethyl ((1S,1′S)-((2S,2′S)-((5,10-dihydrochromeno [5,4,3-cde]chromene-2,7-diyl)bis(1H-imidazole-5,2-diyl))bis(pyrrolidine-2,1-diyl))bis(1-((2R,6R)-2,6-dimethyltetrahydro-2H-pyran-4-yl)-2-oxoethane-2,1-diyl))dicarbamate] | 0.195 nM | 0.18 nM | 0.024 nM | 0.143 nM | 0.199 nM | 0.07 nM | 0.237 nM | 0.87 nM | 0.361 nM | – |
